This note sets out measurements from ChEMBL document CHEMBL1127106, “Synthesis and cytotoxic activity of () octadecylphosphodithionyl-1-myo-inositol” (1993).

SMILES strings stand for the structures. Several values for one entry are separate records, joined by “and”; a condition that tells them apart may be missing. Equal values may be shown once.

Type in all cases: functional, Homo sapiens
Assay [1] has as its system K562. Nature of the assay: Cytotoxic activity on K-562 erythroleukemia cell line suspension in 5% foetal calf serum (FCS) at 10e-4 M concentration after 24 hr.
For assay [2], the system named is K562. Description: Cytotoxic activity on K-562 erythroleukemia cell line suspension in 5% foetal calf serum (FCS) at 10e-5 M concentration after 1 hr.
Assay [3] relates to K562. Nature of the assay: Cytotoxic activity on K-562 erythroleukemia cell line suspension in 5% foetal calf serum (FCS) at 4*10e-6 M concentration after 24 hr.
In assay [4] the test system is K562. Nature of the assay: Cytotoxic activity on K-562 erythroleukemia cell line suspension in 5% foetal calf serum (FCS) at 10e-3 M concentration after 24 hr.
Assay [5] relates to K562. Nature of the assay: Cytotoxic activity on K-562 erythroleukemia cell line suspension in 5% foetal calf serum (FCS) at 10e-3 M concentration after 2 hr.
Assay [6] concerns K562. Nature of the assay: Cytotoxic activity on K-562 erythroleukemia cell line suspension in 5% foetal calf serum (FCS) at 4*10e-4 M concentration after 24 hr.
In assay [7] the test system is K562. Nature of the assay: Cytotoxic activity on K-562 erythroleukemia cell line suspension in 5% foetal calf serum (FCS) at 10e-3 M concentration after 1 hr.
The test system of assay [8] is K562. Nature of the assay: Cytotoxic activity on K-562 erythroleukemia cell line suspension in 5% foetal calf serum (FCS) at 4*10e-6 M concentration after 1 hr.
Assay [9] deals with K562. Nature of the assay: Cytotoxic activity on K-562 erythroleukemia cell line suspension in 5% foetal calf serum (FCS) at 4*10e-5 M concentration after 2 hr.
The test system of assay [10] is K562. Description: Cytotoxic activity on K-562 erythroleukemia cell line suspension in 5% foetal calf serum (FCS) at 10e-4 M concentration after 2 hr.
Assay [11] has as its system K562. Nature of the assay: Cytotoxic activity on K-562 erythroleukemia cell line suspension in 5% foetal calf serum (FCS) at 4*10e-4 M concentration after 1 hr.
The subject of assay [12] is K562. Nature of the assay: Cytotoxic activity on K-562 erythroleukemia cell line suspension in 5% foetal calf serum (FCS) at 4*10e-5 M concentration after 1 hr.
In assay [13] the test system is K562. Nature of the assay: Cytotoxic activity on K-562 erythroleukemia cell line suspension in 5% foetal calf serum (FCS) at 10e-6 M concentration after 2 hr.
Assay [14] deals with K562. Nature of the assay: Cytotoxic activity on K-562 erythroleukemia cell line suspension in 5% foetal calf serum (FCS) at 10e-5 M concentration after 2 hr.
Assay [15] relates to K562. Description: Cytotoxic activity on K-562 erythroleukemia cell line suspension in 5% foetal calf serum (FCS) at 10e-4 M concentration after 1 hr.
For assay [16], the system named is K562. Nature of the assay: Cytotoxic activity on K-562 erythroleukemia cell line suspension in 5% foetal calf serum (FCS) at 10e-6 M concentration after 24 hr.
Assay [17] has as its system K562. Description: Cytotoxic activity on K-562 erythroleukemia cell line suspension in 5% foetal calf serum (FCS) at 10e-6 M concentration after 1 hr.
Assay [18] concerns K562. Description: Cytotoxic activity on K-562 erythroleukemia cell line suspension in 5% foetal calf serum (FCS) at 10e-5 M concentration after 24 hr.
For assay [19], the system named is K562. Description: Cytotoxic activity on K-562 erythroleukemia cell line suspension in 5% foetal calf serum (FCS) at 4*10e-6 M concentration after 2 hr.
Assay [20] relates to K562. Description: Cytotoxic activity on K-562 erythroleukemia cell line suspension in 5% foetal calf serum (FCS) at 4*10e-5 M concentration after 24 hr.

Turning to `CCCCCCCCCCCCCCCCCCSP(O)(=S)O[C@@H]1[C@@H](O)[C@H](O)[C@@H](O)[C@H](O)[C@@H]1O` (stereo not given in full), the Dead cells stood at 40% in the assay with K562 [1]; 13.3% in the assay on K562 [2]; 22.5% with K562 [3]; 96.2% in the assay on K562 [4]; 52.52% in the assay on K562 [5]; 71.1% in the assay on K562 [6]. Moreover, the Dead cells is reported as 48.9% in the assay with K562 [7]; 13.3% in the assay on K562 [8]; 17% with K562 [9]; 22.7% in the assay with K562 [10]; 48.2% in the assay with K562 [11]; 15.5% in the assay on K562 [12]. Besides, the Dead cells in the assay with K562 [13] was determined as 18.2%; in the assay on K562 [14], 16.6%; in the assay with K562 [15], 18.4%; with K562 [16] it was 27.2%; in the assay with K562 [17], 14%; with K562 [18], 23.3%. Besides, the Dead cells in the assay on K562 [19] is 16.8% and 45.9%; with K562 [20], 24.4%.
